Drawing on patent publication US20090111821A1, “AMINO 1,2,4-TRIAZOLE DERIVATIVES AS MODULATORS OF MGLUR5” (AstraZeneca AB, priority 2007, published 2009), this text covers IC50 and Kp for 20 compounds.

The target in one data set is T1, human mGluR5d (Homo sapiens, UniProt P41594).
T1 construct: expressed in transfected cells; The cells are kept under hygromycin B and Zeocin selection; The separate IP3 assay names GHEK cells stably expressing human mGluR5d
The data set is described as follows: FLIPR assay, mobilization of intracellular calcium in cells expressing human mGluR5d. Type of data set: cell-based. As to conditions: antagonism of agonist response, read-out: FLIPR hmGluR5d. An excerpt:
Functional Assessment of mGluR5 Antagonism in Cell Lines Expressing mGluR5D
The properties of the compounds of the invention can be analyzed using standard assays for pharmacological activity. Examples of glutamate receptor assays are well known in the art as described in for example Aramori et al., Neuron 8:757 (1992), Tanabe et al. Neuron 8:169 (1992), Miller et al., J. Neuroscience 15: 6103 (1995), Balazs, et al., J. Neurochemistry 69:151 (1997). The methodology described in these publications is incorporated herein by reference. Conveniently, the compounds of the invention can be studied by means of an assay (FLIPR) that measures the mobilization of intracellular calcium, [Ca^2+]i in cells expressing mGluR5 or another assay (IP3) that measures inositol phosphate turnover.
Cells expressing human mGluR5d as described in WO97/05252 cultured in a mixture of high glucose DMEM with Glutamax (31966-021)(500 mL), 10% dialyzed fetal bovine serum (Hyclone #SH30079.03) (56 mL), 200 μg/mL Hygromycin B (Invitrogen 45-0430, 50 mg/mL) (2.2 mL), 200 μg/mL Zeocin (Invitrogen #R250-01; 100 mg/mL) (1.1 mL) are seeded at a density of 100,000 cells per well on collagen coated clear bottom 96-well plates with black sides and cells were allowed to adhere over night before experiments. All assays are done in a buffer containing 146 mM NaCl, 5 mM KCl, 1 mM MgCl2, 1 mM CaCl2, 20 mM HEPES, 1 mg/mL glucose and 1 mg/mL BSA Fraction IV (pH 7.4). Cell cultures in the 96-well plates are loaded for 60 minutes in the above mentioned buffer containing 6 μM of the acetoxymethyl ester form of the fluorescent calcium indicator fluo-3 (Molecular Probes, Eugene, Oreg.) in 0.025% pluronic acid (a proprietary, non-ionic surfactant polyol—CAS Number 9003-11-6). Following the loading period the fluo-3 buffer is removed and replaced with fresh assay buffer. FLIPR experiments are done using a laser setting of 0.700 W and a 0.4 second CCD camera shutter speed with excitation and emission wavelengths of 488 nm and 562 nm, respectively. Each experiment is initiated with 160 μl of buffer present in each well of the cell plate. A 40 μl addition from the antagonist plate was followed by a 50 μL addition from the agonist plate. A 30 minutes, in dark at 25° C., interval separates the antagonist and agonist additions. The fluorescence signal is sampled 50 times at 1-second intervals followed by 3 samples at 5-second intervals immediately after each of the two additions. Responses are measured as the difference between the peak heights of the response to agonist, less the background fluorescence within the sample period. IC50 determinations are made using a […] least squares fitting program.

A short description of data set [1]: Determination of brain to plasma ratio in rat. Type of data set: in vivo. The note with it: brain and plasma, female Sprague Dawley rats, read-out: Brain/Plasma Ratio of compound in Rat. How it is done: Brain to plasma ratios are estimated in female Sprague Dawley rats. The compound is dissolved in water or another appropriate vehicle. For determination of brain to plasma ratio the compound is administrated as a subcutaneous, or an intravenous bolus injection, or an intravenous infusion, or an oral administration. At a predetermined time point after the administration a blood sample is taken with cardiac puncture. The rat is terminated by cutting the heart open, and the brain is immediately retained. The blood samples are collected in heparinized tubes and centrifuged within 30 minutes, in order to separate the plasma from the blood cells. The plasma is transferred to 96-well plates and stored at −20° C. until analysis. The brains are divided in half, and each half is placed in a pre-tarred tube and stored at −20° C. until analysis. Prior to the analysis, the brain samples are thawed and 3 mL/g brain tissue of distilled water is added to the tubes. The brain samples are sonicated in an ice bath until the samples are homogenized. Both brain and plasma samples are precipitated with acetonitrile. After centrifugation, the supernatant is diluted with 0.2% formic acid. Analysis is performed on a short reversed-phase HPLC column with rapid gradient elution and MSMS detection using a triple quadrupole instrument with electrospray ionisation and Selected Reaction Monitoring (SRM) acquisition. Liquid-liquid extraction may be used as an alternative sample clean-up. The samples are extracted, by shaking, to an organic solvent after addition of a suitable buffer. An aliquot of the organic layer is transferred to a new vial and evaporated to dryness under a stream of nitrogen. After reconstitution of the residuals the samples are ready for injection onto the HPLC column.

Each structure is given as a SMILES string. pIC50: −log10 of the molar value.

T1 sequence (P41594 21-942 isoform P41594-3 limits assumed): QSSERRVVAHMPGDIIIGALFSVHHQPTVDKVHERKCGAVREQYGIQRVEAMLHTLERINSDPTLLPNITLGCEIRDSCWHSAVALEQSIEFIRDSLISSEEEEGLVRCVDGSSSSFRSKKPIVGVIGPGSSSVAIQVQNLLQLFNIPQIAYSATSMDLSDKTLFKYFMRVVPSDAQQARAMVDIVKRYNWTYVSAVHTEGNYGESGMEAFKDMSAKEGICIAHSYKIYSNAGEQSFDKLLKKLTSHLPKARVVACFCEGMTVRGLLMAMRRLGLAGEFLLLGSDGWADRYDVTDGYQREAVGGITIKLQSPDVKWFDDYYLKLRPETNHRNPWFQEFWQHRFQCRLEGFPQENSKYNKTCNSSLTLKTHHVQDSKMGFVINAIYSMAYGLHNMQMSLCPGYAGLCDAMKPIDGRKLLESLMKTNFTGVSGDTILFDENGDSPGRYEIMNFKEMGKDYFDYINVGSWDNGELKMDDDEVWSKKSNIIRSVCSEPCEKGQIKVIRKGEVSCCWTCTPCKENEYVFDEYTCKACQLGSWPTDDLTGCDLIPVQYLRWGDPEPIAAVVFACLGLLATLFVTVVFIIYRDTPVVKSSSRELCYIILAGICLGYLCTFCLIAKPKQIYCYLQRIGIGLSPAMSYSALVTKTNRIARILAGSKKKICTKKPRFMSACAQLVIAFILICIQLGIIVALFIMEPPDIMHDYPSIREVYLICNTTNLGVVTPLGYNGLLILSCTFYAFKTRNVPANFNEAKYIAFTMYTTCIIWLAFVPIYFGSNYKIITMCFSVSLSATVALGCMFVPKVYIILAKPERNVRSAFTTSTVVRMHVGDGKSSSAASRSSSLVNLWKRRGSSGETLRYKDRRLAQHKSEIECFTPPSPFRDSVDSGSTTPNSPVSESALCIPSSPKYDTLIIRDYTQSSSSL

Take `CN(Cc1cc(-c2cccc(Cl)c2)on1)c1nnc(-c2cncnc2)n1C` [Example 8.2, N-{[5-(3-Chlorophenyl)isoxazol-3-yl]methyl}-N,4-dimethyl-5-pyrimidin-5-yl-4H-1,2,4-triazol-3-amine]: the pIC50 on human mGluR5d is 7.70. Moreover, the Kp in data set [1] is 0.16.
The matching figures for `Cc1cccc(-c2cc([C@H](C)N(C)c3nnc(-c4cc[nH]c(=O)c4)n3C)no2)c1` [Example 4.12, (−)-4-[4-Methyl-5-(methyl-{(1S)-1-[5-(3-methylphenyl)-isoxazol-3-yl]ethyl}amino)-4H-1,2,4-triazol-3-yl]pyridin-2(1H)-one]: 7.15 and less than 0.01.
Turning to `CC(c1cc(-c2cccc(Cl)c2)on1)N(c1nnc(-c2cn[nH]c(=O)c2)n1C)C1CC1` (single isomer, unassigned; (-)) [(−) 5.2], the pIC50 at human mGluR5d was 6.95. Moreover, in data set [1], the Kp is less than 0.01.
`CCN(Cc1cc(-c2cccc(Cl)c2)on1)c1nnc(-c2ccn(C)c(=O)c2)n1C` [Example 4.10, 4-{5-[{[5-(3-Chlorophenyl)-isoxazol-3-yl]methyl}(ethyl)amino]-4-methyl-4H-1,2,4-triazol-3-yl}-1-methylpyridin-2(1H)-one]: the pIC50 at human mGluR5d was 7.19. Also, in data set [1], the Kp is less than 0.01.
The matching figures for `CCN(Cc1cc(-c2cccc(Cl)c2)on1)c1nnc(-c2cn[nH]c(=O)c2)n1C` [Example 4.3, 5-{5-[{[5-(3-Chlorophenyl)-isoxazol-3-yl]methyl}(ethyl)-amino]-4-methyl-4H-1,2,4-triazol-3-yl}pyridazin-3(2H)-one]: 7.68 and 0.015.
The matching figures for `CC(c1cc(-c2cccc(Cl)c2)on1)N(C)c1nnc(-c2ccn(C)c(=O)c2)n1C` (single isomer, unassigned; (-)) [(−) 5.1]: 7.52 and less than 0.01.
The matching figures for `CCN(Cc1cc(-c2cccc(C)c2)on1)c1nnc(-c2ccn(C)c(=O)c2)n1C` [Example 4.8, 4-[5-(Ethyl{[5-(3-methylphenyl)isoxazol-3-yl]methyl}amino)-4-methyl-4H-1,2,4-triazol-3-yl]-1-methylpyridin-2(1H)-one]: 6.95 and 0.22.
For the compound `CCN(Cc1cc(-c2cccc(C)c2)on1)c1nnc(-c2cc[nH]c(=O)c2)n1C` [Example 4.9, 4-[5-(Ethyl{[5-(3-methylphenyl)isoxazol-3-yl]methyl}amino)-4-methyl-4H-1,2,4-triazol-3-yl]pyridin-2(1H)-one], at human mGluR5d, the pIC50 is 7.28. In addition, in data set [1], the Kp stood at 0.035.
The matching figures for `Cn1c(-c2cn[nH]c(=O)c2)nnc1N(Cc1cc(-c2cccc(Cl)c2)on1)C1CC1` [Example 4.1, 5-{5-[{[5-(3-Chlorophenyl)isoxazol-3-yl]methyl}(cyclopropyl)amino]-4-methyl-4H-1,2,4-triazol-3-yl}pyridazin-3(2H)-one]: 7.39 and less than 0.01.
Taken in the same sequence, the figures for `CCN(Cc1cc(-c2cccc(C)c2)on1)c1nnc(-c2cn[nH]c(=O)c2)n1C` [Example 4.6, 5-[5-(Ethyl{[5-(3-methylphenyl)isoxazol-3-yl]-methyl}amino)-4-methyl-4H-1,2,4-triazol-3-yl]pyridazin-3(2H)-one] were 7.35 and 0.01.
The matching figures for `CCn1c(-c2cc(=O)[nH]cn2)nnc1N(C)Cc1cc(-c2cccc(C)c2)on1` [Example 4.7, 6-[4-Ethyl-5-(methyl{[5-(3-methylphenyl)isoxazol-3-yl]methyl}amino)-4H-1,2,4-triazol-3-yl]pyrimidin-4(3H)-one]: 7.28 and less than 0.015.
Consider `CCn1c(-c2cc(=O)[nH]cn2)nnc1N(C)Cc1cc(-c2cccc(Cl)c2)on1` [Example 4.4, 6-{5-[{[5-(3-chlorophenyl)-isoxazol-3-yl]methyl}(methyl)amino]-4-ethyl-4H-1,2,4-triazol-3-yl}pyrimidin-4(3H)-one], for which the pIC50 at human mGluR5d was 7.89. For the same compound, the Kp in data set [1] is less than 0.01.
The matching figures for `CCN(Cc1noc(-c2cccc(C)c2)n1)c1nnc(-c2cn[nH]c(=O)c2)n1C` [Example 8.5, 5-[5-(Ethyl{[5-(3-methylphenyl)-1,2,4-oxadiazol-3-yl]methyl}amino)-4-methyl-4H-1,2,4-triazol-3-yl]pyridazin-3(2H)-one]: 7.28 and less than 0.01.
Regarding `CCN(Cc1noc(-c2cccc(Cl)c2)n1)c1nnc(-c2cn[nH]c(=O)c2)n1C` [Example 8.4, 5-{5-[{[5-(3-Chlorophenyl)-1,2,4-oxadiazol-3-yl]methyl}(ethyl)amino]-4-methyl-4H-1,2,4-triazol-3-yl}pyridazin-3(2H)-one], the pIC50 on human mGluR5d was 7.37. In addition, the Kp in data set [1] is less than 0.01.
The matching figures for `CCN(Cc1noc(-c2cccc(C)c2)n1)c1nnc(-c2ccn(C)c(=O)c2)n1C` [Example 8.6, 4-[5-(Ethyl{[5-(3-methylphenyl)-1,2,4-oxadiazol-3-yl]methyl}amino)-4-methyl-4H-1,2,4-triazol-3-yl]-1-methylpyridin-2(1H)-one]: 7.12 and less than 0.01.
The matching figures for `CN(Cc1cc(-c2cccc(Cl)c2)on1)c1nnc(-c2cc(=O)[nH]cn2)n1C1CC1` [Example 4.5, 6-{5-[{[5-(3-chlorophenyl)isoxazol-3-yl]methyl}(methyl)amino]-4-cyclopropyl-4H-1,2,4-triazol-3-yl}pyrimidin-4(3H)-one]: 7.11 and less than 0.01.
The matching figures for `CCN(Cc1cc(-c2cccc(Cl)c2)on1)c1nnc(-c2cc[nH]c(=O)c2)n1C` [Example 4.2, 4-{5-[{[5-(3-Chlorophenyl)-isoxazol-3-yl]methyl}(ethyl)amino]-4-methyl-4H-1,2,4-triazol-3-yl}pyridin-2(1H)-one]: 7.51 and 0.02.
For the compound `Cc1cccc(-c2cc([C@H](C)N(C)c3nnc(-c4cnn(C)c(=O)c4)n3C)no2)c1` [Example 14, 2-Methyl-5-[4-methyl-5-(methyl{(1S)-1-[5-(3-methylphenyl)isoxazol-3-yl]ethyl}amino)-4H-1,2,4-triazol-3-yl]pyridazin-3(2H)-one], the pIC50 at human mGluR5d was 7.92. The Kp in data set [1] is 0.07.
Taken in the same sequence, the figures for `Cc1cccc(-c2cc([C@H](C)N(C)c3nnc(-c4ccn(C)c(=O)c4)n3C)no2)c1` [Example 8.3, 1-Methyl-4-[4-methyl-5-(methyl-{(1S)-1-[5-(3-methylphenyl)-isoxazol-3-yl]ethyl}amino)-4H-1,2,4-triazol-3-yl]pyridin-2(1H)-one] were 6.93 and less than 0.01.
The matching figures for `CN(Cc1cc(-c2cccc(Cl)c2)on1)c1nnc(-c2ccnnc2)n1C` [Example 8.1, N-{[5-(3-Chlorophenyl)isoxazol-3-yl]methyl}-N,4-dimethyl-5-pyridazin-4-yl-4H-1,2,4-triazol-3-amine]: 8.00 and 0.03.
